Laboratory results: patent US9714247B2, “Multiple kinase pathway inhibitors” (Mannkind Corporation, priority 2012, dated 2017)

Columns and labels:
BTK(R28H)(h) = BTK(R28H)(h) (Homo sapiens (Human), UniProt Q06187, R28H); assay: IC50 profiler radiometric kinase assay (Millipore); assay type: biochemical; details: TK
Experimental: (§1) In order to determine the relative enzyme selectivity of these amino naphthyridinones, representative amino naphthyridinones were evaluated for their ability to inhibit various kinases. Kinases were selected for a broad representation of the kinome (see FIG. 2: Kinases Evaluated). Compounds were evaluated using the IC50 profiler assay (Millipore), which measures substrate phosphorylation via γ-^33P-ATP transfer by the kinase of interest.
(§2) The assay directly measures the catalytic incorporation of phosphate onto kinase substrates. The kinase protein is incubated in buffer with substrate and γ-^33P-ATP. The reaction is initiated by the addition of the Mg-ATP mix. At the end of the reaction incubation time, the reaction is stopped by the addition of phosphoric acid solution and 10 μL of the reaction is spotted onto a filtermat, washed, dried and counted in scintillation fluid. […] In particular the amino naphthyridinones inhibited Abl and some but not all tested members of the Tec and Src families of tyrosine kinases, but not tyrosine-like kinases or the non-tyrosine kinases tested (See FIG. 2: Compound 1). […] Other known drugs with activity against BTK and SFKs, such as dasatinib and bosutinib, have activity against a broader array of tyrosine kinases as well as inhibiting non-tyrosine kinases (See FIG. 2: Dasatinib).

BTK(h) = BTK(h) (Homo sapiens (Human), UniProt Q06187); assay: IC50 profiler radiometric kinase assay (Millipore); assay type: biochemical; details: TK
Experimental: as §1, §2

CHK1(h) = CHK1(h) (Homo sapiens (Human), UniProt O14757); assay: IC50 profiler radiometric kinase assay (Millipore); assay type: biochemical; details: CAMK
Experimental: as §1, §2

CK1δ(h) = CK1δ(h) (Homo sapiens (Human), UniProt P48730); assay: IC50 profiler radiometric kinase assay (Millipore); assay type: biochemical; details: CK1
Experimental: as §1, §2

CSK(h) = CSK(h) (Homo sapiens (Human), UniProt P41240); assay: IC50 profiler radiometric kinase assay (Millipore); assay type: biochemical; details: TK
Experimental: as §1, §2

EGFR(h) = EGFR(h) (Homo sapiens (Human), UniProt P00533); assay: IC50 profiler radiometric kinase assay (Millipore); assay type: biochemical; details: TK
Experimental: as §1, §2

GSK3α(h) = GSK3α(h) (Homo sapiens (Human), UniProt P49840); assay: IC50 profiler radiometric kinase assay (Millipore); assay type: biochemical; details: CMGC
Experimental: as §1, §2

Hck(h) = Hck(h) (Homo sapiens (Human), UniProt P08631); assay: IC50 profiler radiometric kinase assay (Millipore); assay type: biochemical; details: TK
Experimental: as §1, §2

IGF-1R(h) = IGF-1R(h) (Homo sapiens (Human), UniProt P08069); assay: IC50 profiler radiometric kinase assay (Millipore); assay type: biochemical; details: TK
Experimental: as §1, §2

IKKβ(h) = IKKβ(h) (Homo sapiens (Human), UniProt O14920); assay: IC50 profiler radiometric kinase assay (Millipore); assay type: biochemical; details: MISC
Experimental: as §1, §2

Itk(h) = Itk(h) (Homo sapiens (Human), UniProt Q08881); assay: IC50 profiler radiometric kinase assay (Millipore); assay type: biochemical; details: TK
Experimental: as §1, §2

JAK3(h) = JAK3(h) (Homo sapiens (Human), UniProt P52333); assay: IC50 profiler radiometric kinase assay (Millipore); assay type: biochemical; details: TK
Experimental: as §1, §2

JNK1α1(h) = JNK1α1(h) (Homo sapiens (Human), UniProt P45983); assay: IC50 profiler radiometric kinase assay (Millipore); assay type: biochemical; details: CMGC
Experimental: as §1, §2

KDR(h) = KDR(h) (Homo sapiens (Human), UniProt P35968); assay: IC50 profiler radiometric kinase assay (Millipore); assay type: biochemical; details: TK
Experimental: as §1, §2

Lyn(h) = Lyn(h) (Homo sapiens (Human), UniProt P07948); assay: IC50 profiler radiometric kinase assay (Millipore); assay type: biochemical; details: TK
Experimental: as §1, §2

MAPK1(h) = MAPK1(h) (Homo sapiens (Human), UniProt P27361); assay: IC50 profiler radiometric kinase assay (Millipore); assay type: biochemical; details: CMGC
Experimental: as §1, §2

MAPKAP-K2(h) = MAPKAP-K2(h) (Homo sapiens (Human), UniProt P49137); assay: IC50 profiler radiometric kinase assay (Millipore); assay type: biochemical; details: CAMK
Experimental: as §1, §2

MKK6(h) = MKK6(h) (Homo sapiens (Human), UniProt P52564); assay: IC50 profiler radiometric kinase assay (Millipore); assay type: biochemical; details: STE
Experimental: as §1, §2

Met(h) = Met(h) (Homo sapiens (Human), UniProt P08581); assay: IC50 profiler radiometric kinase assay (Millipore); assay type: biochemical; details: TK
Experimental: as §1, §2

PAK2(h) = PAK2(h) (Homo sapiens (Human), UniProt Q13177); assay: IC50 profiler radiometric kinase assay (Millipore); assay type: biochemical; details: STE
Experimental: as §1, §2

PDGFRα(h) = PDGFRα(h) (Homo sapiens (Human), UniProt P16234); assay: IC50 profiler radiometric kinase assay (Millipore); assay type: biochemical; details: TK
Experimental: as §1, §2

PDGFRβ(h) = PDGFRβ(h) (Homo sapiens (Human), UniProt P09619); assay: IC50 profiler radiometric kinase assay (Millipore); assay type: biochemical; details: TK
Experimental: as §1, §2

PKCα(h) = PKCα(h) (Homo sapiens (Human), UniProt P17252); assay: IC50 profiler radiometric kinase assay (Millipore); assay type: biochemical; details: AGC
Experimental: as §1, §2

SAPK2a(h) = SAPK2a(h) (Homo sapiens (Human), UniProt Q16539); assay: IC50 profiler radiometric kinase assay (Millipore); assay type: biochemical; details: CMGC
Experimental: as §1, §2

SAPK2b(h) = SAPK2b(h) (Homo sapiens (Human), UniProt Q15759); assay: IC50 profiler radiometric kinase assay (Millipore); assay type: biochemical; details: CMGC
Experimental: as §1, §2

TGFBR1(h) = TGFBR1(h) (Homo sapiens (Human), UniProt P36897); assay: IC50 profiler radiometric kinase assay (Millipore); assay type: biochemical; details: TKL
Experimental: as §1, §2

c-RAF(h) = c-RAF(h) (Homo sapiens (Human), UniProt P04049, Y340D/Y341D); assay: IC50 profiler radiometric kinase assay (Millipore); assay type: biochemical; details: TKL
Experimental: as §1, §2

cSRC(h) = cSRC(h) (Homo sapiens (Human), UniProt P12931); assay: IC50 profiler radiometric kinase assay (Millipore); assay type: biochemical; details: TK
Experimental: as §1, §2

mTOR(h) = mTOR(h) (Homo sapiens (Human), UniProt P42345); assay: IC50 profiler radiometric kinase assay (Millipore); assay type: biochemical; details: Lipid/Atypical
Experimental: as §1, §2

DoHH2 cells = details: treated 24 hours

Sequence of MAPKAP-K2(h) (P49137 whole entry): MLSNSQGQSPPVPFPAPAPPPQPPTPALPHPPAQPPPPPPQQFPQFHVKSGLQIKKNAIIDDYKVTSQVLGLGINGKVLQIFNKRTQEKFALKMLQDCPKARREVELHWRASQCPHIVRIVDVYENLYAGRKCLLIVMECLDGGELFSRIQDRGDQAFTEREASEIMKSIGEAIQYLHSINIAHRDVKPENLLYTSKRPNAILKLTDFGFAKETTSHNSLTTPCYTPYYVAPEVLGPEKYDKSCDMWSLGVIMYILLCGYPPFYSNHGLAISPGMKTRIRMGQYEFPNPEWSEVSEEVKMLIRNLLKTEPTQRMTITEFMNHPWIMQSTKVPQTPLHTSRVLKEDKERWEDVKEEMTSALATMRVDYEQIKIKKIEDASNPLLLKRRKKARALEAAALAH
Sequence of IGF-1R(h) (P08069 31-1367): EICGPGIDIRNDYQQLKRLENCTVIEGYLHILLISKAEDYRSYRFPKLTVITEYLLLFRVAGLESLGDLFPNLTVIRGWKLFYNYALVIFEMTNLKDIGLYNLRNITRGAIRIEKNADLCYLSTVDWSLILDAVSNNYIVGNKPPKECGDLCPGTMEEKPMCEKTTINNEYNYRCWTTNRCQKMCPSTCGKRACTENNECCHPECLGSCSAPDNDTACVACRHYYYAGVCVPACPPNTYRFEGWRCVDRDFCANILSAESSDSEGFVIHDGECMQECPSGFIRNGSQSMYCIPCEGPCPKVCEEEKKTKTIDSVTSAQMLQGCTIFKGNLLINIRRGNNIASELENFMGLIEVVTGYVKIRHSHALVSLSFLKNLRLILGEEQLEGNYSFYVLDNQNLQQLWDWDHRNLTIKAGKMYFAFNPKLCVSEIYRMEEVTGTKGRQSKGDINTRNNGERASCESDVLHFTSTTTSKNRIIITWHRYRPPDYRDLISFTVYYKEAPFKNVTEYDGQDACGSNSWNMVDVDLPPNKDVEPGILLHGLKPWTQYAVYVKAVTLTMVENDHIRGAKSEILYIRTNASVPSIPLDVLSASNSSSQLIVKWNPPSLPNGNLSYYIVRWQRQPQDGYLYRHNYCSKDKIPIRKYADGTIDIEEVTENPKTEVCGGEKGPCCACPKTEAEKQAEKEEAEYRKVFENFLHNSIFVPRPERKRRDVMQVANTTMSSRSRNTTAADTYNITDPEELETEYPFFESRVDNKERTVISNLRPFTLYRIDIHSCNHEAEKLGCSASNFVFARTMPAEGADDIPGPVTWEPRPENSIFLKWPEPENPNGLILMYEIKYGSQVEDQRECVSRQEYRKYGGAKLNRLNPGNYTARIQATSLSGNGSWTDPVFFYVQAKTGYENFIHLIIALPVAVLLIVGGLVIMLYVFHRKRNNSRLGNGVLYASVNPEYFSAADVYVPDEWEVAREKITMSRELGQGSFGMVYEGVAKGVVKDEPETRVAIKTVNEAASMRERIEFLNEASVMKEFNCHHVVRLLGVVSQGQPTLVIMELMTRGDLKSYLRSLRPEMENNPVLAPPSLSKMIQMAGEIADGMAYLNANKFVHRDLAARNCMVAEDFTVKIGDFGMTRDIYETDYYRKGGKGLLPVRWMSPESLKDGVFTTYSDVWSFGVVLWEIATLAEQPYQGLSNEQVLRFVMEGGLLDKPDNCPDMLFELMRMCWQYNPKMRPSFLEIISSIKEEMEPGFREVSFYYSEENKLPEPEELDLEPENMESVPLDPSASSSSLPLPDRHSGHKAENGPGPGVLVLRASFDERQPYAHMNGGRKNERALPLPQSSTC
Sequence of EGFR(h) (P00533 25-1210): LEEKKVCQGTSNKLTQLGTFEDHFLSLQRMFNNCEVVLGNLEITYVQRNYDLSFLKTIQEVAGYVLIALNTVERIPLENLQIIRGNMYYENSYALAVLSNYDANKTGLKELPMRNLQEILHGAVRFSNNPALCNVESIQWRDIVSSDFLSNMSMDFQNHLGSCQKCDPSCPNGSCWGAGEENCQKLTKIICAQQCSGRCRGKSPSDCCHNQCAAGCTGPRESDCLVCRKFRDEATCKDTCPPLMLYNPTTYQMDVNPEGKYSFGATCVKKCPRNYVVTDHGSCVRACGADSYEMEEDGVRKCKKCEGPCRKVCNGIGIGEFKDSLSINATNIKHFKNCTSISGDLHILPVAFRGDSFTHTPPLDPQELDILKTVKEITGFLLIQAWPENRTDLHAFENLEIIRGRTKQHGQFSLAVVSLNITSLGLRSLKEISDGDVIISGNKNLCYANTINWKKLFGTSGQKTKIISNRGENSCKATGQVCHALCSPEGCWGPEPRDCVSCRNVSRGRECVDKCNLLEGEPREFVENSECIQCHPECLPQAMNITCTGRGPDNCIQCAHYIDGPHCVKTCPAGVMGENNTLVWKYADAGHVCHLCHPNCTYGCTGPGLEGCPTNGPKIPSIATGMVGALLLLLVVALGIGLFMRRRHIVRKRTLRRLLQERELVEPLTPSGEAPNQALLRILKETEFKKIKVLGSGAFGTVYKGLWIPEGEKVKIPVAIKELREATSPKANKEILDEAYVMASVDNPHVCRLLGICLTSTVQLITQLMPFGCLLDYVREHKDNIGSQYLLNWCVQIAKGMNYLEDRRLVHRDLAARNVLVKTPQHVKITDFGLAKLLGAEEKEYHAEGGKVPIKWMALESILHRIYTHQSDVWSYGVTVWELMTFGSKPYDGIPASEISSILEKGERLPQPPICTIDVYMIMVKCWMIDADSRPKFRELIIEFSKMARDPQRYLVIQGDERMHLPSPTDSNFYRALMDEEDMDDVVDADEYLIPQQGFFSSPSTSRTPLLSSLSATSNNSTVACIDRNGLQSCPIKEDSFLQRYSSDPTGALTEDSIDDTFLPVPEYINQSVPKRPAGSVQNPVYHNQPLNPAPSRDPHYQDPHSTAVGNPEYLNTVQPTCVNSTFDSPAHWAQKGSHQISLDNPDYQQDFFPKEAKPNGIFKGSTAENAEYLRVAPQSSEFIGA
Sequence of KDR(h) (P35968 20-1356): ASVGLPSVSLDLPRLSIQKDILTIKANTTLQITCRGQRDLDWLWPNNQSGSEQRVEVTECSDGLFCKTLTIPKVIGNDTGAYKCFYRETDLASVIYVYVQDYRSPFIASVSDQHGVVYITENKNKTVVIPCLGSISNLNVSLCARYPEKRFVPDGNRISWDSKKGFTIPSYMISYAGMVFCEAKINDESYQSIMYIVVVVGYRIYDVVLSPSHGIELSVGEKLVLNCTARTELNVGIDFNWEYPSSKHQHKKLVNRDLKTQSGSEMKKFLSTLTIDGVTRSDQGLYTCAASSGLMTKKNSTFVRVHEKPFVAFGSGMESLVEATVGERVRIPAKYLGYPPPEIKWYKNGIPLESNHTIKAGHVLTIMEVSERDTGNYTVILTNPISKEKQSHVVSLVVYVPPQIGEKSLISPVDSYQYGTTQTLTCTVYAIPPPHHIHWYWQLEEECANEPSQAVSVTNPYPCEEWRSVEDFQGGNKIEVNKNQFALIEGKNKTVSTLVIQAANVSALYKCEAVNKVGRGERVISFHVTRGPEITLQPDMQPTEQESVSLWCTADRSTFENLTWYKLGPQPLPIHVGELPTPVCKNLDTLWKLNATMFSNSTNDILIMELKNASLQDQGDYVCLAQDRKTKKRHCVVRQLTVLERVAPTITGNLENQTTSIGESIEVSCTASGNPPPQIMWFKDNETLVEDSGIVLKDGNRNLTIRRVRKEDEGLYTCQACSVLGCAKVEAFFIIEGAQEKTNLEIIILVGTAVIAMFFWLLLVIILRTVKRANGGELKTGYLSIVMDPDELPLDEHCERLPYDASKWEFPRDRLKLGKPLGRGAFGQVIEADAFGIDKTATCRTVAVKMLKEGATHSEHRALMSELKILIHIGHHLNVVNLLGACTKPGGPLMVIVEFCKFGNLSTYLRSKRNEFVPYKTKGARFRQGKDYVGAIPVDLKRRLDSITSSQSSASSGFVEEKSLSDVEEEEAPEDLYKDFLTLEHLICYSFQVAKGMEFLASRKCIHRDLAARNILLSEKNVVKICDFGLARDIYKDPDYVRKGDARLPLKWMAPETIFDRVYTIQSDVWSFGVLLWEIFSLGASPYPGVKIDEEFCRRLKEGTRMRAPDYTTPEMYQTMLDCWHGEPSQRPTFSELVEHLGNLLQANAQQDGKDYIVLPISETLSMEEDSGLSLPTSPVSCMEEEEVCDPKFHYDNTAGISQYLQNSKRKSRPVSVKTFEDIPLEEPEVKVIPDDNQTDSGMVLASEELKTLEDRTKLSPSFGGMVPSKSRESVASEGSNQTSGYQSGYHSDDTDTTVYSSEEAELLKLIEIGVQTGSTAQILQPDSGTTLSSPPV
Sequence of MKK6(h) (P52564 whole entry): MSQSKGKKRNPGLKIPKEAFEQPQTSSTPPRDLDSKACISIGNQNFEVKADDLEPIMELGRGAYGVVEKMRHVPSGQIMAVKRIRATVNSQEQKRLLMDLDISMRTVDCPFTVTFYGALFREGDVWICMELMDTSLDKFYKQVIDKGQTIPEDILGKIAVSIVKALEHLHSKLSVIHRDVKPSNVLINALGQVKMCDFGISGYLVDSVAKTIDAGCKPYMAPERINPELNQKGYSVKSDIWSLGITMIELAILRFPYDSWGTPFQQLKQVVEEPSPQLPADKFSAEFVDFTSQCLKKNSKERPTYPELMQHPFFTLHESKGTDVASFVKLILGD
Sequence of CK1δ(h) (P48730 whole entry): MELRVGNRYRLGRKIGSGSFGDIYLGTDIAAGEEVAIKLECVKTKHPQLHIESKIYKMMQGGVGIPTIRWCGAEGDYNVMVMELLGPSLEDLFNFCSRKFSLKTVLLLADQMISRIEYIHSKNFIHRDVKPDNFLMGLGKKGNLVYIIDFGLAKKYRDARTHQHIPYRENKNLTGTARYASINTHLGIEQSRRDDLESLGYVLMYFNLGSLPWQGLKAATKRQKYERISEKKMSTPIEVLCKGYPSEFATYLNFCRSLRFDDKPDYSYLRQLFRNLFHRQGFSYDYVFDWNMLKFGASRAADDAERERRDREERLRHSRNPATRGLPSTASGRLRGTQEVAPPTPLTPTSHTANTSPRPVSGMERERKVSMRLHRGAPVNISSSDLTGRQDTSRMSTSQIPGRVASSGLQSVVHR

Structure (SMILES)	IC50 (BTK(R28H)(h))	IC50 (BTK(h))	IC50 (CHK1(h))	IC50 (CK1δ(h))	IC50 (CSK(h))	IC50 (EGFR(h))	IC50 (GSK3α(h))	IC50 (Hck(h))	IC50 (IGF-1R(h))	IC50 (IKKβ(h))	IC50 (Itk(h))	IC50 (JAK3(h))	IC50 (JNK1α1(h))	IC50 (KDR(h))	IC50 (Lyn(h))	IC50 (MAPK1(h))	IC50 (MAPKAP-K2(h))	IC50 (MKK6(h))	IC50 (Met(h))	IC50 (PAK2(h))	further results
CCN(CC)CCOc1ccc(Nc2cc3c(cn2)cc(-c2ccccc2)c(=O)n3CC)nc1 [Compound 1, 7-[5-(2-Diethylamino-ethoxy)-pyridin-2-ylamino]-1-ethyl-3-phenyl-1H-[1, 6]naphthyridin-2-one]	500 to 1000 nM	10 to 100 nM	> 1000 nM	> 1000 nM	500 to 1000 nM	500 to 1000 nM	> 1000 nM	10 to 100 nM	> 1000 nM	> 1000 nM	> 1000 nM	> 1000 nM	> 1000 nM	100 to 500 nM	< 10 nM	> 1000 nM	> 1000 nM	> 1000 nM	> 1000 nM	> 1000 nM	IC50 (PDGFRα(h)): 100 to 500 nM; IC50 (PDGFRβ(h)): 100 to 500 nM; IC50 (PKCα(h)): > 1000 nM; IC50 (SAPK2a(h)): 500 to 1000 nM; IC50 (SAPK2b(h)): > 1000 nM; IC50 (TGFBR1(h)): 100 to 500 nM; IC50 (c-RAF(h)): 100 to 500 nM; IC50 (cSRC(h)): < 10 nM; IC50 (mTOR(h)): > 1000 nM; Effect on Cell Cycle (DoHH2 cells): G1 Arrest
CCn1c(=O)c(-c2ccccc2)cc2cnc(Nc3ncc(CCN(C)C)s3)cc21 [Compound 2, 7-[5-(2-Dimethylamino-ethyl)-thiazol-2-ylamino]-1-ethyl-3-phenyl-1H-[1,6]naphthyridin-2-one]	> 1000 nM	100 to 500 nM	> 1000 nM	> 1000 nM	> 1000 nM	> 1000 nM	> 1000 nM	500 to 1000 nM	> 1000 nM	> 1000 nM	> 1000 nM	> 1000 nM	> 1000 nM	500 to 1000 nM	< 10 nM	> 1000 nM	> 1000 nM	> 1000 nM	> 1000 nM	> 1000 nM	IC50 (PDGFRα(h)): 500 to 1000 nM; IC50 (PDGFRβ(h)): 500 to 1000 nM; IC50 (PKCα(h)): > 1000 nM; IC50 (SAPK2a(h)): > 1000 nM; IC50 (SAPK2b(h)): > 1000 nM; IC50 (TGFBR1(h)): 500 to 1000 nM; IC50 (c-RAF(h)): 100 to 500 nM; IC50 (cSRC(h)): 100 to 500 nM; IC50 (mTOR(h)): > 1000 nM
